This note sets out measurements from patent US12643912B2, “Macrocyclic compounds, a process for their preparation and pharmaceutical compositions containing them” (LES LABORATOIRES SERVIER, priority 2020, dated 2026).

A value given as a limit tells only on which side of the number the result lay.

For the first assay, the system named is Nrf2 (Keap1-NRF2 nuclear translocation). As to the kind of experiment: U2OS translocation assay (PathHunter U2OS Keap1-NRF2 Nuclear Translocation Cell Line). The assay is classed as cell-based. The conditions noted are these: Homo sapiens, U2OS, 3 h, read-out: CELLULAR U2OS EC50 (nM), U2OS Keap1-NRF2 nuclear translocation cells, 3 h incubation, luminescence, normalized between 1% DMSO and 10 μM andrographolide. As for the experimental part:
EXAMPLE 84: U2OS—TRANSLOCATION ASSAY
U2OS cell have been stably transduced using MMLV-derived retroviral vector, to overexpress Nrf2-Enzyme Donor fusion protein, and Acceptor Enzyme in the nucleus (PathHunter® U2OS Keap1-NRF2 Nuclear Translocation Cell Line, Ref.93-0821C3, DiscoverX).
PathHunter U2OS cells were grown in Minimum Essential Medium (MEM) (Ref.30-2003, ATCC), 10% FBS (Ref.P30-193306, PanBiotech), 500 μg/ml Geneticine, 250 μg/ml hygromycine, 0.25 μg/ml puromycine (10131-027, 10687-010 and Ref.A1113802 respectively, Life Technologies).
The night before experiment, cells were harvested using Tryple Xpress (Ref.126905, Bibco) for 5 min at 37° C., resuspended in Opti-MEM™ (Ref.31985-047, Gibco), 1% FBS (Ref.P30-193306, PanBiotech) and then plated into 384 wells plates (Ref.6007680, Perkin Elmer) at the density of 7 500 cells/well in 20 μl. Cell are stored over night at 37° C., 5% CO2 until used. Compounds in 100% DMSO (0.315 μl/well) were resuspended in 20 μl MEM, 1% FBS, 3.4% DMSO. Compounds and andrographolide (10 μM final concentration; Ref.365645-500MG, Aldrich)) as positive control, were dispensed on cell, 5 μl /well, and then incubated for 3 h at 37° C. and 5% CO2. After incubation, Path hunter reagents were dispensed on cells (12 μl /well, Ref.93-0001, DiscoverX) and incubated for 60 min at room temperature in the dark.
Then, luminescence signal was measured using multimodal reader (Pherastar, BMG Labtech). Data were normalized between 1% DMSO (basal signal) and 10 μM andrographolide (positive signal) and analyzed using Activity Base software.
For `Cc1ccc2cc1CN1Cc3cc(ccc3OS1(=O)=O)CNC(=O)CCn1nnc3c(C)c(ccc31)C2CC(=O)O` (racemic) [Example 69, [4,31-Dimethyl-19,27,27-trioxo-26-oxa-27λ^6-thia-1,14,15,16,20-pentaazahexacyclo[20.5.3.1^3,70.1^9,130.0^12,160.0^25,29]dotriaconta-3(32),4,6,9(31),10,12,14,22,24,29-decaen-8-yl]acetic acid], the 50% effective concentration (EC50) is more than 3160 nM.

As to `Cc1ccc2cc1CN1Cc3cc(ccc3OS1(=O)=O)OCCCCn1nnc3c(C)c(cc(-c4ccccc4)c31)[C@@H]2CC(=O)O` (single isomer, unassigned) [Example 49], the 50% effective concentration (EC50) was 1620 nM.

The same assay, now with this note: read-out: CELLULAR U2OS EC50; U2OS Keap1-NRF2 nuclear translocation cells, 3 h incubation, luminescence, normalized between 1% DMSO and 10 μM andrographolide.
For `COc1cc2cc(c1C)CN1Cc3cc(ccc3OS1(=O)=O)OCCCCn1nnc3c(C)c(ccc31)C2CC(=O)O` (single isomer, unassigned) [Example 30a, [5-Methoxy-4,31-dimethyl-27,27-dioxo-21,26-dioxa-27λ^6-thia-1,14,15,16-tetraazahexacyclo[20.5.3.1^3,70.1^9,130.0^12,160.0^25,29]dotriaconta-3(32),4,6,9(31),10,12,14,22,24,29-decaen-8-yl]acetic acid], the concentration for a half-maximal effect (EC50) turned out to be 555 nM. On the same count and under the same terms, in the case of `COc1cc2cc(c1C)CN1Cc3cc(ccc3OS1(=O)=O)OCCCCn1nnc3c(C)c(ccc31)C2CC(=O)O` (single isomer, unassigned) [Example 30b, [5-Methoxy-4,31-dimethyl-27,27-dioxo-21,26-dioxa-27λ^6-thia-1,14,15,16-tetraazahexacyclo[20.5.3.1^3,70.1^9,130.0^12,160.0^25,29]dotriaconta-3(32),4,6,9(31),10,12,14,22,24,29-decaen-8-yl]acetic acid] it was 2360 nM; in that of `Cc1ccc2cc1CN1Cc3cc(ccc3OS1(=O)=O)OCC1CCN(CC1)CCn1nnc3c(C)c(ccc31)C2CC(=O)O` (single isomer, unassigned) [Example 60a, [4,36-Dimethyl-30,30-dioxo-24,29-dioxa-30λ^6-thia-1,14,15,16,19-pentaazaheptacyclo[23.5.3.2^19,220.1^3,70.1^9,130.0^12,160.0^28,32]heptatriaconta-3(37),4,6,9(36),10,12,14,25,27,32-decaen-8-yl]acetic acid], 265 nM.

With `Cc1ccc2cc1CN1Cc3cc(ccc3OS1(=O)=O)OCC1CCN(CC1)CCn1nnc3c(C)c(ccc31)C2CC(=O)O` (single isomer, unassigned) [Example 60b, [4,36-Dimethyl-30,30-dioxo-24,29-dioxa-30λ^6-thia-1,14,15,16,19-pentaazaheptacyclo[23.5.3.2^19,220.1^3,70.1^9,130.0^12,160.0^28,32]heptatriaconta-3(37),4,6,9(36),10,12,14,25,27,32-decaen-8-yl]acetic acid], the EC50 is more than 3160 nM. As for `Cc1ccc2cc1CN1Cc3cc(ccc3OS1(=O)=O)OCc1ccccc1/C=C/n1nnc3c(C)c(ccc31)C2CC(=O)O` (single isomer, unassigned) [Example 61a, [(17E)-4,36-dimethyl-32,32-dioxo-26,31-dioxa-32λ^6-thia-1,14,15,16-tetraazaheptacyclo[25.5.3.1^3,70.1^9,130.0^12,160.0^19,240.0^30,34]heptatriaconta-3(37),4,6,9(36),10,12,14,17,19,21,23,27,29,34-tetradecaen-8-yl]acetic acid], the EC50 was 717 nM.

As for `Cc1ccc2cc1CN1Cc3cc(ccc3OS1(=O)=O)OCc1ccccc1/C=C/n1nnc3c(C)c(ccc31)C2CC(=O)O` (single isomer, unassigned) [Example 61b, [(17E)-4,36-dimethyl-32,32-dioxo-26,31-dioxa-32λ^6-thia-1,14,15,16-tetraazaheptacyclo[25.5.3.1^3,70.1^9,130.0^12,160.0^19,240.0^30,34]heptatriaconta-3(37),4,6,9(36),10,12,14,17,19,21,23,27,29,34-tetradecaen-8-yl]acetic acid], the EC50 is more than 3160 nM.

In general, EC50 refers to the concentration needed to bring the measured effect to its halfway point.
